Measured values from US6369075B1, “7[4′-trifluoromethyl-biphenyl-2-carbonyl)amino]-quinoline-3-carboxylic acid amides, and method of inhibiting the secretion of apolipoprotein B” (Pfizer, Inc., priority 1999, dated 2002).

- melting point: 158 °C
SMILES: CCS(=O)(=O)O.CCS(=O)(=O)O.O=C(N[C@@H](c1ccccc1)c1ccccn1)c1cnc2cc(NC(=O)c3ccccc3-c3ccc(C(F)(F)F)cc3)ccc2c1 [Example 2D, (S)-7-[(4′-Trifluoromethyl-biphenyl-2-carbonyl)-amino]-quinoline-3-carboxylic acid (phenyl-pyridin-2-yl-methyl)-amide, bis-ethanesulfonate]
